{"source": "paper PMC8900824", "about": "“Interactions between 2′-fluoro-(carbamoylpyridinyl)deschloroepibatidine analogues and acetylcholine-binding protein inform on potent antagonist activity against nicotinic receptors” (Acta Crystallographica. Section D, Structural Biology, 2022)", "key": {"AcAChBP [1]": {"biological_target": "T1, AcAChBP (Aplysia californica, UniProt Q8WSF8, A155V/A60V)", "T1 construct": "made in house; host or cells: Spodoptera frugiperda (Sf9) cells, baculovirus (Bac-to-Bac)", "T1 sequence (Q8WSF8 entry or part of it A60V/A155V)": "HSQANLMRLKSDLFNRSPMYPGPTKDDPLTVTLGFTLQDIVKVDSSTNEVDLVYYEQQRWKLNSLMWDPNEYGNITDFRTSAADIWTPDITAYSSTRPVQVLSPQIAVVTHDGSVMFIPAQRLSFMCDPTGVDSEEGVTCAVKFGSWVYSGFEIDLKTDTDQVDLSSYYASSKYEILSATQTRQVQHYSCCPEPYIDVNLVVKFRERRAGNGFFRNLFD", "test": "Kd determination by biolayer interferometry (BLI) on immobilized AcAChBP", "assay_type": "binding", "conditions": "25°C, values with standard errors", "method": "The K d values of compounds 1–6 were determined using an Octet RED system (Forté-Bio). AcAChBP (0.5 mg ml^−1 in buffer A) was immobilized on Ni^2+–NTA sensors for 600 s, followed by the removal of non-immobilized protein (600 s) and baseline stabilization (120 s). Association and dissociation measurements were obtained at 25°C for six concentrations of each compound (1.7–410 nM) diluted in buffer A plus 1% DMSO. BLI assays were conducted with a baseline measurement in buffer (60 s), an association measurement in the well containing the compound (120 s) and a dissociation measurement in buffer (120 s). Data processing and analysis were performed with Octet RED Data Analysis version 7.1 (Forté-Bio), where the background response of immobilized AcAChBP in buffer was subtracted."}, "α4β2 nAChR": {"biological_target": "α4β2 nAChR", "conditions": "cited from earlier work"}, "recombinant α4β2 nAChR": {"system": "recombinant α4β2 nAChR", "conditions": "recombinant receptor, electrophysiology; ref Ondachi et al., 2016; cited from earlier work"}, "homomeric α7 nAChR": {"system": "homomeric α7 nAChR", "conditions": "ref Ondachi et al., 2016, cited from earlier work; for agonist/antagonist effect on α7 nAChR: homomeric α7"}, "AcAChBP [2]": {"biological_target": "T1, AcAChBP", "parameters": "method as in Hansen et al., 2005", "conditions": "read-out: AcAChBP, Kd; tryptophan fluorescence-quenching assay; ref Hansen et al., 2005; cited from earlier work"}, "recombinant α3β4 nAChR": {"system": "recombinant α3β4 nAChR", "conditions": "recombinant receptor, electrophysiology; ref Ondachi et al., 2016; cited from earlier work"}, "AcAChBP [3]": {"biological_target": "T1, AcAChBP", "conditions": "read-out: AcAChBP, Kd; isothermal titration calorimetry; ref Rucktooa et al., 2012; cited from earlier work"}, "[4]": {"system": "nicotine-induced antinociception", "conditions": "in vivo; ref Ondachi et al., 2016; cited from earlier work"}, "[5]": {"conditions": "[3H]-epibatidine competition assay, values with standard errors, ref Ondachi et al., 2016"}}, "note": "“And” between values parts separate entries of the source, which are not always exact repeats. Equal entries are not always repeated. Where two headings read alike, the source gives them in different places.", "data": [{"smiles": "NC(=O)c1cc(-c2cc(C3CC4CCC3N4)cnc2F)ccn1", "note": "(centres unmarked) [Compound 6]", "values": [{"measurement": "Kd", "setting": "AcAChBP [1]", "result": "9.8 ± 0.01", "unit": "nM"}, {"measurement": "Ki", "setting": "α4β2 nAChR; [5]", "result": "0.67 ± 0.28", "unit": "nM"}]}, {"smiles": "NC(=O)c1ccc(-c2cc(C3CC4CCC3N4)cnc2F)cc1", "note": "(centres unmarked) [Compound 1]", "values": [{"measurement": "Kd", "setting": "AcAChBP [1]", "result": "9.8 ± 0.03", "unit": "nM"}, {"measurement": "Ki", "setting": "α4β2 nAChR", "result": "0.12 ± 0.02", "unit": "nM"}, {"measurement": "agonist activity on α4β2 nAChR", "setting": "recombinant α4β2 nAChR", "result": "mixed partial agonists"}, {"measurement": "agonist/antagonist effect on α7 nAChR", "setting": "homomeric α7 nAChR", "result": "agonists"}]}, {"smiles": "Clc1ccc([C@H]2C[C@@H]3CC[C@H]2N3)cn1", "note": "[Epibatidine, (1R,2R,4S)-2-(6-chloro-3-pyridinyl)-7-azabicyclo[2.2.1]heptane]", "values": [{"measurement": "Kd", "setting": "AcAChBP [2]", "result": 14, "unit": "nM"}, {"measurement": "agonist activity on α4β2 nAChR", "setting": "recombinant α4β2 nAChR", "result": "full agonist"}, {"measurement": "agonist activity on α3β4 nAChR", "setting": "recombinant α3β4 nAChR", "result": "full agonist"}]}, {"smiles": "CN1CCC[C@H]1c1cccnc1", "note": "[Nicotine]", "values": [{"measurement": "Kd", "setting": "AcAChBP [3]", "result": 835, "unit": "nM"}]}, {"smiles": "NC(=O)c1cncc(-c2cc(C3CC4CCC3N4)cnc2F)c1", "note": "(centres unmarked) [Compound 5]", "values": [{"measurement": "Kd", "setting": "AcAChBP [1]", "result": "~30 nM and 30 nM"}, {"measurement": "Ki", "setting": "α4β2 nAChR; [5]", "result": "0.28 ± 0.03", "unit": "nM"}, {"measurement": "subtype selectivity α4β2 over α7", "setting": "homomeric α7 nAChR", "result": "selective for α4β2 over α7"}]}, {"smiles": "NC(=O)c1ccnc(-c2cc(C3CC4CCC3N4)cnc2F)c1", "note": "(centres unmarked) [Compound 2]", "values": [{"measurement": "AcAChBP, Kd", "setting": "AcAChBP [1]", "result": "lowest affinity"}, {"measurement": "Kd", "setting": "AcAChBP [1]", "result": "60 ± 0.14", "unit": "nM"}, {"measurement": "Ki", "setting": "α4β2 nAChR; [5]", "result": "0.28 ± 0.01", "unit": "nM"}, {"measurement": "agonist/antagonist effect on α7 nAChR", "setting": "homomeric α7 nAChR", "result": "only an antagonist"}, {"measurement": "antagonism of the antinociceptive action of nicotine", "setting": "[4]", "result": "a potency approaching that of varenicline"}]}, {"smiles": "c1cnc2cc3c(cc2n1)[C@@H]1CNC[C@H]3C1", "note": "[Varenicline]", "values": [{"measurement": "Kd", "setting": "AcAChBP [3]", "result": 342, "unit": "nM"}]}, {"smiles": "NC(=O)c1ccc(-c2cc(C3CC4CCC3N4)cnc2F)nc1", "note": "(centres unmarked) [Compound 3]", "values": [{"measurement": "Kd", "setting": "AcAChBP [1]", "result": "29 ± 0.05", "unit": "nM"}, {"measurement": "Ki", "setting": "α4β2 nAChR; [5]", "result": "0.94 ± 0.07", "unit": "nM"}, {"measurement": "agonist activity on α4β2 nAChR", "setting": "recombinant α4β2 nAChR", "result": "mixed partial agonists"}, {"measurement": "agonist/antagonist effect on α7 nAChR", "setting": "homomeric α7 nAChR", "result": "agonists"}]}, {"smiles": "NC(=O)c1ccc(-c2cc(C3CC4CCC3N4)cnc2F)cn1", "note": "(centres unmarked) [Compound 4]", "values": [{"measurement": "Kd", "setting": "AcAChBP [1]", "result": "33 ± 0.08", "unit": "nM"}, {"measurement": "Ki", "setting": "α4β2 nAChR; [5]", "result": "0.07 ± 0.002", "unit": "nM"}, {"measurement": "subtype selectivity α4β2 over α7", "setting": "homomeric α7 nAChR", "result": "selective for α4β2 over α7"}]}]}
